Data reported in patent publication US6962912B2, “Substituted pyrazolo[4,3-e]diazepines, pharmaceutical compositions containing them, use as medicinal products and processes for preparing them” (Warner-Lambert LLC, priority 2000, dated 2005).

Assays:
production of TNFα = assay: in vivo TNFα model in Wistar rats (LPS-induced); conditions: oral administration 30 min before i.p. LPS; plasma 90 min after LPS; male Wistar rats
From the text: TNFα is a cytokine which plays a central role in the mechanisms of inflammation. Its production can be induced by an injection of lipopolysaccharide (LPS). It has been shown that the increase in intracellular cAMP, produced in particular by PDE4 inhibitors, decreases the production of TNFα in in vitro and in vivo models. It is thus a matter here of quantifying in vivo the anti-inflammatory potential of the compounds of the invention, administered orally (p.o.) by measuring the inhibition of the production of TNFα in the plasma of rats, these rats having received an intraperitoneal (i.p.) injection of lipopolysaccharide (LPS). The treatment with the compounds of the invention or the vehicle are [sic] administered orally to male Wistar rats, 30 min before the injection of LPS. The rats are sacrificed 90 min after the stimulation with LPS, the blood is collected onto EDTA and the TNFα concentration is measured in each plasma sample. […] References • Chen, Y. L., Le Vraux, V., Giroud, J. P. and Chauvelot-Moachon L. (1994). Anti-tumor necrosis factor properties of non-peptide drugs in acute-phase responses. […] Int. J. Immunopharmacol., 16 (10), 805-816. Model of Eosinophilia in Rats

PDE4 = assay: Inhibition of PDE4 (cytosolic enzyme preparation from U937 line), compared with rolipram; type: biochemical, human; conditions: PDE4 enzyme preparation obtained from the U937 line

SMILES	inhibition of the production of TNFα in the plasma of rats (production of TNFα)	IC50 (PDE4) [nM]	melting point [°C]
CCC(C)c1nn(CC)c2c1N=C(c1ccccc1)CNC2=O (racemic) [Example 68, (±)3-sec-Butyl-1-ethyl-5-phenyl-6,7-dihydro-1H-pyrazolo[4,3-e][1,4]diazepin-8-one]	excellent activity	6.2	
CCC(C)c1nn(CC)c2c1N=C(c1ccncc1)CNC2=O (racemic) [Example 69, (±)3-sec-Butyl-1-ethyl-5-pyrid-4-yl-6,7-dihydro-1H-pyrazolo[4,3-e][1,4]diazepin-8-one]	excellent activity	13	86 to 88.5
CCCn1nc(C(C)CC)c2c1C(=O)NCC(c1ccncc1)=N2 (racemic) [Example 71, (±)3-sec-Butyl-1-propyl-5-pyrid-4-yl-6,7-dihydro-1H-pyrazolo[4,3-e][1,4]diazepin-8-one]	excellent activity	35	110
CCn1nc(C)c2c1C(=O)NCC(C(C)(C)C)N2 (stereo not shown) [5-tert-Butyl-1-ethyl-3-methyl-4,5,6,7-tetrahydro-1H-pyrazolo[4,3-e][1,4]diazepin-8-one]	excellent activity		
CCn1nc(C(C)C)c2c1C(=O)NCC(c1ccccc1)=N2 [Example 1, 1-Ethyl-3-isopropyl-5-phenyl-6,7-dihydro-1H-pyrazolo[4,3-e][1,4]diazepin-8-one]	excellent activity	4.9	157.2
CCn1nc(C(C)C)c2c1C(=S)NCC(c1ccccc1)=N2 [Example 2, 1-Ethyl-3-isopropyl-5-phenyl-6,7-dihydro-1H-pyrazolo[4,3-e][1,4]diazepin-8-thione]	excellent activity	0.98	164
CCn1nc(C(C)C)c2c1C(=NC#N)NCC(c1ccccc1)=N2 [Example 3, 1-Ethyl-3-isopropyl-5-phenyl-6,7-dihydro-1H-pyrazolo[4,3-e][1,4]diazepin-8-ylidenecyanamide]	excellent activity	0.12	222
CCn1nc(C)c2c1C(=O)NCC(c1ccc(OC)cc1)=N2 [Example 6, 1-Ethyl-5-(4-methoxyphenyl)-3-methyl-6,7-dihydro-1H-pyrazolo[4,3-e][1,4]diazepin-8-one]	excellent activity	420	178
CCn1nc(C)c2c1C(=O)NCC(c1ccc(N)cc1)=N2 [Example 12, 5-(4-Aminophenyl)-1-ethyl-3-methyl-6,7-dihydro-1H-pyrazolo-[4,3-e][1,4]diazepin-8-one]	excellent activity	100	212
CCCn1nc(C)c2c1C(=O)NCC(c1ccccc1)=N2 [Example 15, 3-Methyl-5-phenyl-1-propyl-6,7-dihydro-1H-pyrazolo-[4,3-e][1,4]diazepin-8-one]	excellent activity	520	171
Cc1nn(CCO)c2c1N=C(c1ccccc1)CNC2=O [Example 16, 1-(2-Hydroxyethyl)-3-methyl-5-phenyl-6,7-dihydro-1H-pyrazolo[4,3-e][1,4]diazepin-8-one]	excellent activity	420	75
CCn1nc(C(C)C)c2c1C(=O)NCC(C(C)(C)C)=N2 [Example 35, 5-tert-Butyl-1-ethyl-3-isopropyl-6,7-dihydro-1H-pyrazolo[4,3-e][1,4]diazepin-8-one]	excellent activity	0.7	
CCn1nc(C(C)C)c2c1C(=O)NCC(c1ccc(C)cc1)=N2 [Example 36, 1-Ethyl-3-isopropyl-5-p-tolyl-6,7-dihydro-1H-pyrazolo[4,3-e][1,4]diazepin-8-one]	excellent activity	0.39	
CCn1nc(C(C)C)c2c1C(=O)NCC(c1ccc(C#N)cc1)=N2 [Example 37, 4-(1-Ethyl-3-isopropyl-8-oxo-1,6,7,8-tetrahydro-pyrazolo[4,3-e][1,4]diazepin-5-yl)benzonitrile]	excellent activity	0.97	
CCn1nc(C(C)C)c2c1C(=O)NCC(c1ccc(OC)cc1OC)=N2 [Example 39, 5-(2,4-Dimethoxyphenyl)-1-ethyl-3-isopropyl-6,7-dihydro-1H-pyrazolo[4,3-e][1,4]diazepin-8-one]	excellent activity	9.1	
CCCn1nc(C(C)C)c2c1C(=O)NCC(C(C)(C)C)=N2 [Example 40, 5-tert-Butyl-3-isopropyl-1-propyl-6,7-dihydro-1H-pyrazolo[4,3-e][1,4]diazepin-8-one]	excellent activity	8.2	

SMILES	inhibition of the production of TNFα in the plasma of rats (production of TNFα)	IC50 (PDE4) [nM]	melting point [°C]
CCCn1nc(C(C)C)c2c1C(=O)NCC(c1ccc(C)cc1)=N2 [Example 41, 3-Isopropyl-1-propyl-5-p-tolyl-6,7-dihydro-1H-pyrazolo[4,3-e][1,4]diazepin-8-one]	excellent activity	11	
CCCn1nc(C(C)C)c2c1C(=O)NCC(c1ccc(C#N)cc1)=N2 [Example 42, 4-(3-Isopropyl-8-oxo-1-propyl-1,6,7,8-tetrahydro-pyrazolo[4,3-e][1,4]diazepin-5-yl)benzonitrile]	excellent activity	10	
CCn1nc(C(C)(C)C)c2c1C(=O)NCC(c1ccc(C)cc1)=N2 [Example 45, 3-tert-Butyl-1-ethyl-5-p-tolyl-6,7-dihydro-1H-pyrazolo[4,3-e][1,4]diazepin-8-one]	excellent activity	2.6	
CCn1nc(C(C)(C)C)c2c1C(=O)NCC(c1ccc(C#N)cc1)=N2 [Example 46, 4-(3-tert-Butyl-1-ethyl-8-oxo-1,6,7,8-tetrahydro-pyrazolo[4,3-e][1,4]diazepin-5-yl)benzonitrile]	excellent activity	0.84	
CCCn1nc(C2CCCCC2)c2c1C(=O)NCC(c1ccncc1)=N2 [Example 75, 3-Cyclohexyl-1-propyl-5-pyrid-4-yl-6,7-dihydro-1H-pyrazolo-[4,3-e][1,4]diazepin-8-one]	excellent activity	4.9	
CCCn1nc(C(C)C)c2c1C(=O)NCC(c1ccc(OC)cc1)=N2 [Example 85, 3-Isopropyl-5-(4-methoxyphenyl)-1-propyl-6,7-dihydro-1H-pyrazolo[4,3-e][1,4]diazepin-8-one]		200	142
CCn1nc(C(C)(C)C)c2c1C(=O)NCC(c1ccc(OC)cc1)=N2 [Example 86, 3-tert-Butyl-1-ethyl-5-(4-methoxyphenyl)-6,7-dihydro-1H-pyrazolo[4,3-e][1,4]diazepin-8-one]		310	180
CCCn1nc(C(C)(C)C)c2c1C(=O)NCC(c1ccc(OC)cc1)=N2 [Example 87, 3-tert-Butyl-5-(4-methoxyphenyl)-1-propyl-6,7-dihydro-1H-pyrazolo[4,3-e][1,4]diazepin-8-one]		41	167
CCn1nc(C)c2c1C(=NC#N)NCC(c1ccc(O)cc1)=N2 [Example 88, 1-Ethyl-3-methyl-5-(4-hydroxyphenyl)-6,7-dihydro-1H-pyrazolo[4,3-e][1,4]diazepin-8-ylidenecyanamide]		2.1	300
CCn1nc(C)c2c1C(=O)NCC(c1cc(OC)c(OC)c(OC)c1)=N2 [Example 91, 1-Ethyl-3-methyl-5-(3,4,5-trimethoxyphenyl)-6,7-dihydro-1H-pyrazolo[4,3-e][1,4]diazepin-8-one]		900	208
CCn1nc(C)c2c1C(=O)NCC(c1cccc(O)c1)=N2 [Example 92, 1-Ethyl-5-(3-hydroxyphenyl)-3-methyl-6,7-dihydro-1H-pyrazolo[4,3-e][1,4]diazepin-8-one]		92	204
CCn1nc(C)c2c1C(=O)NCC(c1ccccc1O)=N2 [Example 93, 1-Ethyl-5-(2-hydroxyphenyl)-3-methyl-6,7-dihydro-1H-pyrazolo[4,3-e][1,4]diazepin-8-one]		7.4	220
CCn1nc(C(C)C)c2c1C(=O)NCC(c1ccc(O)cc1)=N2 [Example 94, 1-Ethyl-5-(4-hydroxyphenyl)-3-isopropyl-6,7-dihydro-1H-pyrazolo[4,3-e][1,4]diazepin-8-one]		2.1	230
CCCn1nc(C(C)C)c2c1C(=O)NCC(c1ccc(O)cc1)=N2 [Example 95, 5-(4-Hydroxyphenyl)-3-isopropyl-1-propyl-6,7-dihydro-1H-pyrazolo[4,3-e][1,4]diazepin-8-one]		15	230
CCn1nc(C(C)(C)C)c2c1C(=O)NCC(c1ccc(O)cc1)=N2 [Example 96, 3-tert-Butyl-1-ethyl-5-(4-hydroxyphenyl)-6,7-dihydro-1H-pyrazolo[4,3-e][1,4]diazepin-8-one]		4.9	264
